Measured values: patent US20250122182A1 (Isosterix, Inc., priority 2023, published 2025)

Target: Recombinant KAT6A/MOZ (488-778) protein (Homo sapiens (Human), UniProt Q92794)
Assay: KAT6A AlphaLISA Inhibition Screening Assay
Assay type: biochemical
Details: for inhibition at 1 µM: read-out: Average Kat6A % inhibition @ 1 μM; for inhibition at 1 µM / Average Kat6A % inhibition @ 1 μM: 1 μM test compound; for inhibition at 10 µM: read-out: Average Kat6A % inhibition @ 10 μM; for inhibition at 10 µM / Average Kat6A % inhibition @ 10 μM: 10 μM test compound
Procedure, shortened: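 AlphaLISA read-out with anti-acetyl-lysine acceptor and streptavidin donor beads, % inhibition relative to vehicle. Reaction: biotinylated histone H3 1-21 (200 nM) and acetyl-CoA (400 nM) with KAT6A 488-778 (25 nM), 120 min at room temperature, pH 8.0, 330 nM TSA, after 60 or 10 min enzyme–compound pre-incubation; 10-point 3-fold series from 10 μM.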

Recombinant KAT6A/MOZ (488-778) protein, sequence (Q92794 488-778): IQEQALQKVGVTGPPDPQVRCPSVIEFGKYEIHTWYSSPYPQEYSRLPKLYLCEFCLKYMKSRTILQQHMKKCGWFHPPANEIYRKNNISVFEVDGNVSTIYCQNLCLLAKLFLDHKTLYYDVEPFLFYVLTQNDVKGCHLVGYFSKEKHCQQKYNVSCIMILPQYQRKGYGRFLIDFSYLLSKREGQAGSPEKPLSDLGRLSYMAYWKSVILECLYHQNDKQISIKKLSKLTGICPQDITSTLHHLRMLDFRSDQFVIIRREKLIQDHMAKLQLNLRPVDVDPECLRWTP

SMILES | inhibition at 1 µM [%] | inhibition at 10 µM [%] | Average Kat6A % inhibition @ 1 μM [%] | Average Kat6A % inhibition @ 10 μM [%]
CCc1ccc(OCc2nnco2)c(S(=O)(=O)Nc2noc3cc(Cn4cc(CNC(=O)OC)cn4)cc(OC)c23)c1 [Syn. Ex. 127, methyl ((1-((3-((2-((1,3,4-oxadiazol-2-yl)methoxy)-5-ethylphenyl)sulfonamido)-4-methoxybenzo[d]isoxazol-6-yl)methyl)-1H-pyrazol-4-yl)methyl)carbamate] | 101 | 100 |  | 
C=C(F)C(=O)NCc1cnn(Cc2cc(OC)c3c(NS(=O)(=O)c4cc(CC)ccc4OCC(N)=O)noc3c2)c1 [Syn. Ex. 45, N-((1-((3-((2-(2-amino-2-oxoethoxy)-5-ethylphenyl)sulfonamido)-4-methoxybenzo[d]isoxazol-6-yl)methyl)-1H-pyrazol-4-yl)methyl)-2-fluoroacrylamide] | 85 | 99 |  | 
COC(=O)NCc1cnn(Cc2cc(OC)c3c(NS(=O)(=O)c4cccc5c(C)ccnc45)noc3c2)c1 [Syn. Ex. 131, methyl ((1-((4-methoxy-3-((4-methylquinoline)-8-sulfonamido)benzo[d]isoxazol-6-yl)methyl)-1H-pyrazol-4-yl)methyl)carbamate] |  |  | 99 | 100
CCc1ccc(OCC(=N)NO)c(S(=O)(=O)Nc2noc3cc(Cn4cc(CNC(=O)OC)cn4)cc(OC)c23)c1 [Syn. Ex. 115, methyl ((1-((3-((5-ethyl-2-(2-(hydroxyamino)-2-iminoethoxy)phenyl)sulfonamido)-4-methoxybenzo[d]isoxazol-6-yl)methyl)-1H-pyrazol-4-yl)methyl)carbamate] | 100 | 100 |  | 
CCc1ccc(S(=O)(=O)Nc2noc3cc(Cn4cc(CNC(=O)OC)cn4)c4c(c23)OCCC4)c(OC)c1 [Syn. Ex. 140, methyl ((1-((9-((4-ethyl-2-methoxyphenyl)sulfonamido)-3,4-dihydro-2H-chromeno[8,7-d]isoxazol-5-yl)methyl)-1H-pyrazol-4-yl)methyl)carbamate] | 106 | 104 |  | 
C#CC(=O)NCc1cnn(Cc2cc(OC)c3c(NS(=O)(=O)c4cc(Cl)c(C)cc4OC)noc3c2)c1 [Syn. Ex. 21, N-((1-((3-((5-chloro-2-methoxy-4-methylphenyl)sulfonamido)-4-methoxybenzo[d]isoxazol-6-yl)methyl)-1H-pyrazol-4-yl)methyl)propiolamide] | 100 | 99 |  | 
C#CC(=O)NCc1cnn(Cc2cc(OC)c3c(NS(=O)(=O)c4c(OC)ccnc4OC)noc3c2)c1 [Syn. Ex. 85, N-((1-((3-((2,4-dimethoxypyridine)-3-sulfonamido)-4-methoxybenzo[d]isoxazol-6-yl)methyl)-1H-pyrazol-4-yl)methyl)propiolamide] |  |  | 91 | 95
CCOc1cc2c(NS(=O)(=O)c3cc(CC)ccc3OC)noc2cc1Cn1cc(CNC(=O)OC)cn1 [Syn. Ex. 142, methyl ((1-((5-ethoxy-3-((5-ethyl-2-methoxyphenyl)sulfonamido)benzo[d]isoxazol-6-yl)methyl)-1H-pyrazol-4-yl)methyl)carbamate] | 110 | 99 |  | 
C=C(F)C(=O)NCc1cnn(Cc2cc(OC)c3c(NS(=O)(=O)c4cc(C)c(C)cc4OC)noc3c2)c1 [Syn. Ex. 28, 2-fluoro-N-((1-((4-methoxy-3-((2-methoxy-4,5-dimethylphenyl)sulfonamido)benzo[d]isoxazol-6-yl)methyl)-1H-pyrazol-4-yl)methyl)acrylamide] | 100 | 100 |  | 
C=C(F)C(=O)NCc1cnn(Cc2cc(OC)c3c(NS(=O)(=O)c4cc(C(C)C)ccc4OC)noc3c2)c1 [Syn. Ex. 59, 2-fluoro-N-((1-((3-((5-isopropyl-2-methoxyphenyl)sulfonamido)-4-methoxybenzo[d]isoxazol-6-yl)methyl)-1H-pyrazol-4-yl)methyl)acrylamide] | 100 | 100 |  | 
C#CC(=O)N1Cc2cnn(Cc3cc(OC)c4c(NS(=O)(=O)c5cc(Cl)ccc5OC)noc4c3)c2C1 [Syn. Ex. 1, 5-chloro-2-methoxy-N-(4-methoxy-6-((5-propioloyl-5,6-dihydropyrrolo[3,4-c]pyrazol-1(4H)-yl)methyl)benzo[d]isoxazol-3-yl)benzenesulfonamide] | 100 | 100 |  | 
COC(=O)NCc1cnn(Cc2cc(OC)c3c(NS(=O)(=O)c4cc(C)cc5cccnc45)noc3c2)c1 [Syn. Ex. 130, methyl ((1-((4-methoxy-3-((6-methylquinoline)-8-sulfonamido)benzo[d]isoxazol-6-yl)methyl)-1H-pyrazol-4-yl)methyl)carbamate] |  |  | 100 | 102
C=C(F)C(=O)NCc1cnn(Cc2cc(OC)c3c(NS(=O)(=O)c4cc(CC)ccc4OCC(=N)NO)noc3c2)c1 [Syn. Ex. 118, N-((1-((3-((5-ethyl-2-(2-(hydroxyamino)-2-iminoethoxy)phenyl)sulfonamido)-4-methoxybenzo[d]isoxazol-6-yl)methyl)-1H-pyrazol-4-yl)methyl)-2-fluoroacrylamide] | 97 | 100 |  | 
CCc1ccc(OC)c(S(=O)(=O)Nc2noc3cc(Cn4cc(CNC(=O)[C@@H](C)F)cn4)cc(OC)c23)c1 (single isomer, unassigned) [Syn. Ex. 47a] | 100 | 100 |  | 
CCc1ccc(OCCNC(C)=O)c(S(=O)(=O)Nc2noc3cc(Cn4cc(CNC(=O)OC)cn4)cc(OC)c23)c1 [Syn. Ex. 81, methyl ((1-((3-((2-(2-acetamidoethoxy)-5-ethylphenyl)sulfonamido)-4-methoxybenzo[d]isoxazol-6-yl)methyl)-1H-pyrazol-4-yl)methyl)carbamate] | 91 | 99 |  | 
COc1cc(Cn2cc(CNS(C)(=O)=O)cn2)cc2onc(NS(=O)(=O)c3ccccc3OCc3ccccc3)c12 [Syn. Ex. 37, 2-(benzyloxy)-N-(4-methoxy-6-((4-(methylsulfonamidomethyl)-1H-pyrazol-1-yl)methyl)benzo[d]isoxazol-3-yl)benzenesulfonamide] | 100 | 100 |  | 
CCc1ccc(OC)c(S(=O)(=O)Nc2noc3cc(Cn4cc(CNC(=O)OCCN)cn4)cc(OC)c23)c1 [Syn. Ex. 32, 2-aminoethyl ((1-((3-((5-ethyl-2-methoxyphenyl)sulfonamido)-4-methoxybenzo[d]isoxazol-6-yl)methyl)-1H-pyrazol-4-yl)methyl) carbamate] |  |  | 75 | 97
C=C(F)C(=O)NCc1cnn(Cc2cc(OC)c3c(NS(=O)(=O)c4cc(OC)ccc4OC)noc3c2)c1 [Syn. Ex. 41, N-((1-((3-((2,5-dimethoxyphenyl)sulfonamido)-4-methoxybenzo[d]isoxazol-6-yl)methyl)-1H-pyrazol-4-yl)methyl)-2-fluoroacrylamide] | 87 | 100 |  | 
C#Cc1ccc(OC)c(S(=O)(=O)Nc2noc3cc(Cn4cc(CNC(=O)OC)cn4)cc(OC)c23)c1 [Syn. Ex. 112, methyl ((1-((3-((5-ethynyl-2-methoxyphenyl)sulfonamido)-4-methoxybenzo[d]isoxazol-6-yl)methyl)-1H-pyrazol-4-yl)methyl)carbamate] | 70 | 98 |  | 
CC#CC(=O)N1Cc2cnn(Cc3cc(OC)c4c(NS(=O)(=O)c5cc(CC)ccc5OC)noc4c3)c2C1 [Syn. Ex. 11, N-(6-((5-(but-2-ynoyl)-5,6-dihydropyrrolo[3,4-c]pyrazol-1(4H)-yl)methyl)-4-methoxybenzo[d]isoxazol-3-yl)-5-ethyl-2-methoxybenzenesulfonamide] | 100 | 100 |  | 
COc1cc(C)c(Cl)cc1S(=O)(=O)Nc1noc2cc(Cn3cc(CNS(C)(=O)=O)cn3)cc(OC)c12 [Syn. Ex. 22, 5-chloro-2-methoxy-N-(4-methoxy-6-((4-(methylsulfonamidomethyl)-1H-pyrazol-1-yl)methyl)benzo[d]isoxazol-3-yl)-4-methylbenzenesulfonamide] | 100 | 100 |  | 
CCc1ccc(OC)c(S(=O)(=O)Nc2noc3cc(Cn4cc(CNC(=O)OCCNC(=O)OC(C)(C)C)cn4)cc(OC)c23)c1 [Syn. Ex. 31, 2-((tert-butoxycarbonyl)amino)ethyl ((1-((3-((5-ethyl-2-methoxyphenyl)sulfonamido)-4-methoxybenzo[d]isoxazol-6-yl)methyl)-1H-pyrazol-4-yl)methyl)carbamate] | 86 | 99 |  | 
CCc1ccc(OC)c(S(=O)(=O)Nc2noc3cc(Cn4cc(CNC(=O)OC)cn4)cc(OC(F)F)c23)c1 [Syn. Ex. 63, methyl ((1-((4-(difluoromethoxy)-3-((5-ethyl-2-methoxyphenyl)sulfonamido)benzo[d]isoxazol-6-yl)methyl)-1H-pyrazol 4yl)methyl)carbamate] | 95 | 96 |  | 
COc1cc2c(NS(=O)(=O)c3cc(C)ccc3OC)noc2cc1Cn1cc(CN)cn1 [Syn. Ex. 150, N-(6-((4-(aminomethyl)-1H-pyrazol-1-yl)methyl)-5-methoxybenzo[d]isoxazol-3-yl)-2-methoxy-5-methylbenzenesulfonamide] | 101 | 103 |  | 
C=C(F)C(=O)NCc1cnn(Cc2cc(OC)c3c(NS(=O)(=O)c4cc(CC)ccc4OCc4ncc[nH]4)noc3c2)c1 [Syn. Ex. 119, N-((1-((3-((2-((1H-imidazol-2-yl)methoxy)-5-ethylphenyl)sulfonamido)-4-methoxybenzo[d]isoxazol-6-yl)methyl)-1H-pyrazol-4-yl)methyl)-2-fluoroacrylamide] | 100 | 100 |  | 
